Data as given in PMC12198282, “Application of a high-density microelectrode array assay using a 3D human iPSC-derived brain microphysiological system model for in vitro neurotoxicity screening of environmental compounds” (Archives of Toxicology, 2025).
Like-named read-outs stand apart in the source and are kept apart here.

Tests used:
[1] = test system: 2D rat cortical cultures; details: cited from earlier work; for hitc CCTE_Shafer_MEA_dev_AB: rNFA mc5 hit call; on hitc CCTE Shafer MEA dev active electrodes number: key: 1 (active); 0 (inactive); on hitc CCTE Shafer MEA dev burst duration mean: key: 1 (active); 0 (inactive); on hitc CCTE Shafer MEA dev burst rate: key: 1 (active); 0 (inactive); on hitc CCTE Shafer MEA dev bursting electrodes number: key: 1 (active); 0 (inactive); on hitc CCTE Shafer MEA dev correlation coefficient mean: key: 1 (active); 0 (inactive); on hitc CCTE Shafer MEA dev firing rate mean: key: 1 (active); 0 (inactive); on hitc CCTE Shafer MEA dev inter network spike interval mean: key: 1 (active); 0 (inactive); on hitc CCTE Shafer MEA dev interburst interval mean: key: 1 (active); 0 (inactive); on hitc CCTE Shafer MEA dev mutual information norm: key: 1 (active); 0 (inactive); on hitc CCTE Shafer MEA dev network spike duration std: key: 1 (active); 0 (inactive); on hitc CCTE Shafer MEA dev network spike number: key: 1 (active); 0 (inactive); on hitc CCTE Shafer MEA dev network spike peak: key: 1 (active); 0 (inactive); on hitc CCTE Shafer MEA dev per burst interspike interval: key: 1 (active); 0 (inactive); on hitc CCTE Shafer MEA dev per burst spike percent: key: 1 (active); 0 (inactive); on hitc CCTE Shafer MEA dev per network spike spike number mean: key: 1 (active); 0 (inactive); on hitc CCTE Shafer MEA dev per network spike spike percent: key: 1 (active); 0 (inactive); on hitc CCTE Shafer MEA dev spike duration mean: key: 1 (active); 0 (inactive)
[2] = test system: BrainSpheres; assay: Cytotoxicity evaluation, resazurin assay (BrainSphere.Cyto); format: cell-based, human; details: for Cytotoxicity hit / hitc BrainSphere.Cyto / AC50: resazurin; for Cytotoxicity hit: after 13 days of exposure; for hitc BrainSphere.Cyto: day 13, tcplfit2; for AC50: day 13, Supplement 3 prints it also for curves with hit call 0, read-out: ac50 BrainSphere.Cyto; for BMD BrainSphere.Cyto: tcplfit2 BMD at benchmark response (1.349*SD of baseline controls); for ACC BrainSphere.Cyto: tcplfit2 output ACC, activity cutoff in Supplemental Table 1; on hitc BrainSphere.Cyto: key: 1 (active); 0 (inactive)
Experimental: For the resazurin assay, BrainSpheres were cultured for 7 weeks in non-treated 6-well plates under gyratory shaking. Subsequently, the cells were exposed in the same manner as the HD-MEA plates. This assay was used to determine cell viability after exposure for 13 days to the different compounds. After exposure, resazurin diluted in PBS was added directly to the 6-well plates to a final concentration of 0.1 mg/ml. The plates were then put in an incubator for 3 h at 37 °C, 5% CO2. Then, 100 µl of the media was collected and transferred in a 96-well plate for fluorescence analysis, which was done at ex:530 nm/em:590 nm in a multi-well fluorometric reader CytoFluor series 4000 (PerSeptive Biosystems, Inc).
Ten metrics were measured to evaluate changes in neural activity in the BrainSphere MEA assay (Table 3). Considering the complexity of the data which includes seven recording days for each single ROI in a well, an area under the curve (AUC) metric was used to reduce activity across time as described in previous publications (Brown et al. [2016]; Frank et al. [2017b]; Shafer et al. [2019]). […] For concentration–response modeling, the mean AUC values across all the BrainSpheres per well (technical replicates) was computed for each endpoint, such that each concentration included biological replicates from at least three separate wells on three separate plates, representing each individual experiment. The mean AUC values were used for concentration–response modeling using the R package tcplfit2 (version 0.1.6) (Sheffield et al. [2022]). Data were normalized as a percent of vehicle control wells by plate using the equation: resp.pc=rval-bval/bval×100 where resp.pc is the percent of control value, rval is the response value, and bval is the baseline value (defined as the mean of the vehicle control and the lowest tested concentration). […] The activity cutoff was defined as 3 times the median absolute deviation (bmad) of baseline values. A curve was defined as ‘active’ if the continuous hit call was ≥ 0.9. See Supplemental Table 1 for the bmad, activity cutoff threshold, SD, and benchmark response for each endpoint in the BrainSphere MEA. Potency was defined as the concentration at 50% maximal activity (AC50 log10 µM).

[3] = test system: 2D rat cortical cultures; details: cited from earlier work; for AC50: rNFA mc5; for hitc CCTE_Shafer_MEA_dev_active_electrodes_number / hitc CCTE_Shafer_MEA_dev_burst_duration_mean / hitc CCTE_Shafer_MEA_dev_burst_rate / hitc CCTE_Shafer_MEA_dev_bursting_electrodes_number / hitc CCTE_Shafer_MEA_dev_correlation_coefficient_mean / hitc CCTE_Shafer_MEA_dev_firing_rate_mean / hitc CCTE_Shafer_MEA_dev_inter_network_spike_interval_mean / hitc CCTE_Shafer_MEA_dev_interburst_interval_mean / hitc CCTE_Shafer_MEA_dev_mutual_information_norm / hitc CCTE_Shafer_MEA_dev_network_spike_duration_std / hitc CCTE_Shafer_MEA_dev_network_spike_number / hitc CCTE_Shafer_MEA_dev_network_spike_peak / hitc CCTE_Shafer_MEA_dev_per_burst_interspike_interval / hitc CCTE_Shafer_MEA_dev_per_burst_spike_percent / hitc CCTE_Shafer_MEA_dev_per_network_spike_spike_number_mean / hitc CCTE_Shafer_MEA_dev_per_network_spike_spike_percent / hitc CCTE_Shafer_MEA_dev_spike_duration_mean: rNFA mc5 hit call; for hitc CCTE_Shafer_MEA_dev_burst_duration_mean: aenm burst_duration_mean; for hitc CCTE_Shafer_MEA_dev_burst_rate: aenm burst_rate; for hitc CCTE_Shafer_MEA_dev_firing_rate_mean: aenm firing_rate_mean; for hitc CCTE_Shafer_MEA_dev_inter_network_spike_interval_mean: aenm inter_network_spike_interval_mean; for hitc CCTE_Shafer_MEA_dev_interburst_interval_mean: aenm interburst_interval_mean; for hitc CCTE_Shafer_MEA_dev_network_spike_duration_std: aenm network_spike_duration_std; for hitc CCTE_Shafer_MEA_dev_network_spike_number: aenm network_spike_number; for hitc CCTE_Shafer_MEA_dev_per_burst_interspike_interval: aenm per_burst_interspike_interval; on hitc CCTE Shafer MEA dev active electrodes number: key: 1 (active); 0 (inactive); on hitc CCTE Shafer MEA dev burst duration mean: key: 1 (active); 0 (inactive); on hitc CCTE Shafer MEA dev burst rate: key: 1 (active); 0 (inactive); on hitc CCTE Shafer MEA dev bursting electrodes number: key: 1 (active); 0 (inactive); on hitc CCTE Shafer MEA dev correlation coefficient mean: key: 1 (active); 0 (inactive); on hitc CCTE Shafer MEA dev firing rate mean: key: 1 (active); 0 (inactive); on hitc CCTE Shafer MEA dev inter network spike interval mean: key: 1 (active); 0 (inactive); on hitc CCTE Shafer MEA dev interburst interval mean: key: 1 (active); 0 (inactive); on hitc CCTE Shafer MEA dev mutual information norm: key: 1 (active); 0 (inactive); on hitc CCTE Shafer MEA dev network spike duration std: key: 1 (active); 0 (inactive); on hitc CCTE Shafer MEA dev network spike number: key: 1 (active); 0 (inactive); on hitc CCTE Shafer MEA dev network spike peak: key: 1 (active); 0 (inactive); on hitc CCTE Shafer MEA dev per burst interspike interval: key: 1 (active); 0 (inactive); on hitc CCTE Shafer MEA dev per burst spike percent: key: 1 (active); 0 (inactive); on hitc CCTE Shafer MEA dev per network spike spike number mean: key: 1 (active); 0 (inactive); on hitc CCTE Shafer MEA dev per network spike spike percent: key: 1 (active); 0 (inactive); on hitc CCTE Shafer MEA dev spike duration mean: key: 1 (active); 0 (inactive)
[4] = aenm active_electrodes_number, read-out: ac50 CCTE_Shafer_MEA_dev_active_electrodes_number
[5] = aenm bursting_electrodes_number, read-out: ac50 CCTE_Shafer_MEA_dev_bursting_electrodes_number
[6] = aenm bursting_electrodes_number
[7] = aenm correlation_coefficient_mean
[8] = aenm per_network_spike_spike_number_mean
[9] = aenm per_network_spike_spike_percent

SMILES | hitc CCTE_Shafer_MEA_dev_AB ([1]; cytotoxicity AlamarBlue) | Cytotoxicity hit [2] | hitc BrainSphere.Cyto [2] | BMD BrainSphere.Cyto [2] [µM] | ACC BrainSphere.Cyto [2] [µM] | AC50 [3, 4] [µM] | AC50 [3, 5] [µM] | hitc CCTE_Shafer_MEA_dev_active_electrodes_number ([3]; aenm active_electrodes_number) | hitc CCTE_Shafer_MEA_dev_burst_duration_mean [3] | hitc CCTE_Shafer_MEA_dev_burst_rate [3] | hitc CCTE_Shafer_MEA_dev_bursting_electrodes_number [3, 6] | hitc CCTE_Shafer_MEA_dev_correlation_coefficient_mean [3, 7] | hitc CCTE_Shafer_MEA_dev_firing_rate_mean [3] | hitc CCTE_Shafer_MEA_dev_inter_network_spike_interval_mean [3] | hitc CCTE_Shafer_MEA_dev_interburst_interval_mean [3] | hitc CCTE_Shafer_MEA_dev_mutual_information_norm ([3]; aenm mutual_information_norm) | hitc CCTE_Shafer_MEA_dev_network_spike_duration_std [3] | hitc CCTE_Shafer_MEA_dev_network_spike_number [3] | hitc CCTE_Shafer_MEA_dev_network_spike_peak ([3]; aenm network_spike_peak) | hitc CCTE_Shafer_MEA_dev_per_burst_interspike_interval [3] | other results
Brc1ccc(Oc2ccc(Br)cc2Br)c(Br)c1 [BDE- 47] | 1 | 0 | 0 | 79 | 89 | 10 | 0.023 | 1 | 0 | 0 | 1 | 1 | 0 | 0 | 0 | 1 | 0 | 0 | 1 | 0 | AC50 ([1]; read-out: ac50 CCTE_Shafer_MEA_dev_AB, rNFA mc5, cytotoxicity AlamarBlue): 8.31 µM; Cytotoxicity in the resazurin assay of the rNFA (in words) ([1]; ref Brown et al. [2016], Carstens et al. [2022], Frank et al. [2017b], Shafer et al. [2019], ToxCast invitrodb (v4.2)): demonstrating cytotoxicity in the rNFA; AC50 [2]: 45 µM; Top BrainSphere.Cyto ([2]; top of winning model, response normalized as percent of vehicle control, negative = decrease): 4.9; AC50 ([3]; aenm correlation_coefficient_mean, read-out: ac50 CCTE_Shafer_MEA_dev_correlation_coefficient_mean): 4.26 µM; AC50 ([3]; aenm mutual_information_norm, read-out: ac50 CCTE_Shafer_MEA_dev_mutual_information_norm): 0.013 µM; AC50 ([3]; aenm network_spike_peak, read-out: ac50 CCTE_Shafer_MEA_dev_network_spike_peak): 10 µM; AC50 ([3]; aenm per_burst_spike_percent, read-out: ac50 CCTE_Shafer_MEA_dev_per_burst_spike_percent): 14.2 µM; AC50 ([3]; aenm per_network_spike_spike_number_mean, read-out: ac50 CCTE_Shafer_MEA_dev_per_network_spike_spike_number_mean): 4 µM; AC50 ([3]; aenm per_network_spike_spike_percent, read-out: ac50 CCTE_Shafer_MEA_dev_per_network_spike_spike_percent): 15.1 µM; AC50 ([3]; aenm spike_duration_mean, read-out: ac50 CCTE_Shafer_MEA_dev_spike_duration_mean): 15 µM; hitc CCTE_Shafer_MEA_dev_per_burst_spike_percent ([3]; aenm per_burst_spike_percent): 1; hitc CCTE_Shafer_MEA_dev_per_network_spike_spike_number_mean [3, 8]: 1; hitc CCTE_Shafer_MEA_dev_per_network_spike_spike_percent [3, 9]: 1; hitc CCTE_Shafer_MEA_dev_spike_duration_mean ([3]; aenm spike_duration_mean): 1
CC(C)(c1ccc(O)cc1)c1ccc(O)cc1 [Bisphenol A] | 0 | 0 | 0 | 680 | 11523 | 15 | 9.89 | 1 | 0 | 0 | 1 | 0 | 0 | 0 | 0 | 0 | 0 | 0 | 0 | 0 | AC50 ([2]; Homo sapiens, 312 h): 6.8 µM; Number of active endpoints in the rNFA ([3]; of 17 MEA endpoints, ref Brown et al. [2016], Carstens et al. [2022], Frank et al. [2017b], Shafer et al. [2019], ToxCast invitrodb (v4.2)): two; hitc CCTE_Shafer_MEA_dev_per_burst_spike_percent ([3]; aenm per_burst_spike_percent): 0; hitc CCTE_Shafer_MEA_dev_per_network_spike_spike_number_mean [3, 8]: 0; hitc CCTE_Shafer_MEA_dev_per_network_spike_spike_percent [3, 9]: 0; hitc CCTE_Shafer_MEA_dev_spike_duration_mean ([3]; aenm spike_duration_mean): 0
